In this assay the test system is MCF7. Briefly: Cytotoxicity against human MCF7 cells after 48 hrs by SRB assay. The format is functional, cell-based.
Turning to `C=CCSc1nnc(-c2ccc(Nc3ccccc3-c3nnc(SCC=C)o3)cc2)o1`, the IC50 came to 1.05 µM. With `COc1ccc(/C=N/NC(=O)c2ccc(Nc3ccccc3C(=O)N/N=C/c3ccc(OC)c(OC)c3)cc2)cc1OC`, the concentration for half-maximal inhibition (IC50) came out at 0.81 µM. For the compound `c1ccc(CSc2nnc(-c3ccc(Nc4ccccc4-c4nnc(SCc5ccccc5)o4)cc3)o2)cc1`, the midpoint of inhibition, the IC50, lay at 0.73 µM. Next, `CCn1c(S)nnc1-c1ccc(Nc2ccccc2-c2nnc(S)n2CC)cc1`: 2.38 µM; `Sc1nnc(-c2ccc(Nc3ccccc3-c3nnc(S)o3)cc2)o1`: 2 µM; `CCNc1nnc(-c2ccc(Nc3ccccc3-c3nnc(NCC)s3)cc2)s1`: 0.94 µM.

For `CN(C)c1ccc(/C=N/NC(=O)c2ccc(Nc3ccccc3C(=O)N/N=C/c3ccc(N(C)C)cc3)cc2)cc1`, half-maximal inhibition (IC50) was put at 1.23 µM.

The values are drawn from ChEMBL document CHEMBL1240436, “Synthesis and biological evaluation of novel 2,4'-bis substituted diphenylamines as anticancer agents and potential epidermal growth factor receptor tyrosine kinase inhibitors” (Eur J Med Chem, 2010).
